In US10745741B2, “Cell barcoding in microfluidics” (EUROPEAN MOLECULAR BIOLOGY LABORATORY, priority 2015, dated 2020):

How the values were obtained:
[1] = test system: p21; experiment: p21 expression by qPCR on barcoded mRNA from drug-treated MCF-7 cells in droplets; format: cell-based; conditions: 12 h at 37° C., barcode 2B, qPCR (FIG. 8A)
Excerpt: (§1) Barcoding cellular mRNA according to particular drug treatments. The combinatorial microfluidic chip was used to generate droplets containing the following components: • MCF-7 cells+media+ligation mix+barcode fragment BC-1+barcode fragment BC-A+Thiostrepton • MCF-7 cells+media+ligation mix+barcode fragment BC-2+barcode fragment BC-B+Doxorubicin treated cells • MCF-7 cells+media+ligation mix+barcode fragment BC-1+barcode fragment BC-B The resulting emulsions were collected separately in droplet traps (as shown in Hu H et al., Lab Chip 2015) for 12 h at 37° C., before cell lysis was achieved by repeated freezing and thawing. Then the emulsion was broken and hybridized cellular mRNA was purified using streptaviding-coated beads. This step ensures that only mRNA hybridized to ligated barcode combinations (e.g. 1A for the Thiostrepton sample) is isolated. Subsequently reverse transcription was carried out and the abundance of target genes was assessed by qPCR using primers specific for the target genes. Barcode fragment combination is shown exemplary for fragments BC-A and BC-1 in FIG. 7, as well as the reverse transcription and qPCR using the barcode. Expression levels of p21 (FIG. 8A) and FoxM1 (FIG. 8B) were normalized to Actb expression and the fold change in expression was determined between treated and untreated cells.

[2] = test system: FoxM1; experiment: FoxM1 expression by qPCR on barcoded mRNA from drug-treated MCF-7 cells in droplets; format: cell-based; conditions: 12 h at 37° C., barcode combination 1A, qPCR (FIG. 8B)
Excerpt: as §1

Row | Compound | p21 expression normalized to Actb expression, fold change between treated and untreated cells [1] | FoxM1 expression normalized to Actb expression, fold change between treated and untreated cells [2]
1 | COc1cccc2c1C(=O)c1c(O)c3c(c(O)c1C2=O)C[C@@](O)(C(=O)CO)C[C@@H]3O[C@H]1C[C@H](N)[C@H](O)[C@H](C)O1 [Doxorubicin] | significant upregulation | –
2 | C=C(NC(=O)C(=C)NC(=O)c1csc(C2=N[C@@H]3c4csc(n4)[C@H]4NC(=O)c5csc(n5)[C@H]([C@](C)(O)[C@@H](C)O)NC(=O)[C@H]5CSC(=N5)/C(=C/C)NC(=O)[C@H]([C@@H](C)O)NC(=O)c5csc(n5)[C@]3(CC2)NC(=O)[C@H](C)NC(=O)C(=C)NC(=O)[C@H](C)NC(=O)[C@H]([C@@H](C)CC)N[C@@H]2C=Cc3c([C@H](C)O)cc(nc3[C@H]2O)C(=O)O[C@@H]4C)n1)C(N)=O [Thiostrepton] | – | significant downregulation
